# Assay: recombinant barcode read abundance after kanamycin selection (control-corrected) (log10(CPM+1)); higher = more efficient recombination; sequences stand for … in AGTGCAGAGAAAATCGGCCAGTTTTCTCTGCCTGCAGTCCGCATGCCGT…AGATTTATGCAGCGGACTGCCTTTCTCCCAAAGTGATAAACCGGACAGTATCATGGACCGGTTTTCCCGGTAATCCGTATTTGCAAGGTTGGTTTCACT; site = the 11-nt target
# Method in brief: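 Targets were screened in pooled form in E. coli against IS621 bridge RNA target-binding loops. Recombination efficiency is based on barcode counts at recombinant junctions in counts per million, averaged and corrected for the control. Numbers are shown as log10(CPM+1), with duplicate plates on chloramphenicol/ampicillin LB agar (control) or chloramphenicol/ampicillin/kanamycin with 0.1 mM IPTG.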
# 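Also: IS621 recombinase and bridge RNA in Escherichia coli cells.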
row,Sequence,recombinant barcode read abundance (log10)
1,GGGACCACTTGGGTTCTAACCTGTTGCTA (site GGGACCACTTA),1.77
2,GGGACCACTTGGGTTCTAACCTGTTGCTA (site TTCGGACCTCC),0.0578
3,GGGACCTCTTGGGTTCTAACCTGTTGCTC (site GGGACCTCTGA),1.24
4,GGGACCTCTTGGGTTCTAACCTGTTGCTC (site GTGACCTCTCA),0.167
5,GGGACGACTTGGGTTCTAACCTGTTGCTA (site GGGACGACTAA),0.161
6,GGGACGACTTGGGTTCTAACCTGTTGCTA (site GGGACGACTTA),1.35
7,GGGATACCTTGGGTTCTAACCTGTTGCCT (site GCGTTACCTAG),0.0414
8,GGGATACCTTGGGTTCTAACCTGTTGCCT (site GGGATACCTAG),2.6
9,GGGCACTCTTGGGTTCTAACCTGTTGCAT (site GGGCACTCTAA),0.75
10,GGGCACTCTTGGGTTCTAACCTGTTGCAT (site GGGCACTCTAC),0.132
11,GGGCACTCTTGGGTTCTAACCTGTTGCAT (site GGGCACTCTAG),0.606
12,GGGCACTCTTGGGTTCTAACCTGTTGCAT (site GGGCACTCTAT),2.22
13,GGGCACTCTTGGGTTCTAACCTGTTGCCT (site GGGCACTCTAA),0.122
14,GGGCACTCTTGGGTTCTAACCTGTTGCCT (site GGGCACTCTAC),0.0754
15,GGGCACTCTTGGGTTCTAACCTGTTGCCT (site GGGCACTCTAG),1.22
16,GGGCACTCTTGGGTTCTAACCTGTTGCCT (site GGGCACTCTAT),0.585
17,GGGCACTCTTGGGTTCTAACCTGTTGCTT (site GGGCACTCTAA),1.93
18,GGGCACTCTTGGGTTCTAACCTGTTGCTT (site GGGCACTCTAC),0.503
19,GGGCACTCTTGGGTTCTAACCTGTTGCTT (site GGGCACTCTAG),1.35
20,GGGCACTCTTGGGTTCTAACCTGTTGCTT (site GGGCACTCTAT),1.54
21,GGGCAGGCTTGGGTTCTAACCTGTTGCCT (site ATCGTATCTGC),0.189
22,GGGCAGGCTTGGGTTCTAACCTGTTGCCT (site GGGCAGGCTAG),0.969

row,Sequence,recombinant barcode read abundance (log10)
1,GGGCCCGCTTGGGTTCTAACCTGTTGCTA (site GGGCCCGCTTA),1.68
2,GGGCCCGCTTGGGTTCTAACCTGTTGCTA (site GGTCCCGCTTG),0.0696
3,GGGCCTACTTGGGTTCTAACCTGTTGCTC (site GGGCCTACTAA),0.248
4,GGGCCTACTTGGGTTCTAACCTGTTGCTC (site GGGCCTACTCA),0.0546
5,GGGCCTACTTGGGTTCTAACCTGTTGCTC (site GGGCCTACTGA),0.29
6,GGGCCTACTTGGGTTCTAACCTGTTGCTC (site GGGCCTACTTA),0.171
7,GGGCCTACTTGGGTTCTAACCTGTTGCTT (site GGGCCTACTAA),0.914
8,GGGCCTACTTGGGTTCTAACCTGTTGCTT (site GGGCCTACTCA),0.369
9,GGGCCTACTTGGGTTCTAACCTGTTGCTT (site GGGCCTACTGA),0.255
10,GGGCCTACTTGGGTTCTAACCTGTTGCTT (site GGGCCTACTTA),0.063
11,GGGCCTTCTTGGGTTCTAACCTGTTGCAT (site GGGACTTCTAT),0.24
12,GGGCCTTCTTGGGTTCTAACCTGTTGCAT (site GGGCCTTCTAT),1.07
13,GGGCCTTCTTGGGTTCTAACCTGTTGCAT (site GGGGCTTCTAT),0.31
14,GGGCCTTCTTGGGTTCTAACCTGTTGCAT (site GGGTCTTCTAT),0.0646
15,GGGGACCCTTGGGTTCTAACCTGTTGCGA (site GGGGACCCTAC),1.74
16,GGGGACCCTTGGGTTCTAACCTGTTGCGA (site GGGGACCCTCC),0.877
17,GGGGACCCTTGGGTTCTAACCTGTTGCGA (site GGGGACCCTGC),0.247
18,GGGGACCCTTGGGTTCTAACCTGTTGCGA (site GGGGACCCTTC),2.48
19,GGGGACCCTTGGGTTCTAACCTGTTGCGC (site GGGGACCCTAC),2.24
20,GGGGACCCTTGGGTTCTAACCTGTTGCGC (site GGGGACCCTCC),0.0282
21,GGGGACCCTTGGGTTCTAACCTGTTGCGC (site GGGGACCCTGC),3.3

# From the supplement of paper PMC11208160
